According to patent US7932262B2 (Novartis AG, priority 2006, dated 2011):
Read-outs that look alike come from different tables or passages of the source.

Assays:
PC3MM cells = experiment: Cell Proliferation Assay (Cell Titer Glo), PC3MM; type: cell-based; conditions: Cell Proliferation Assay, PC3MM; read-out: CPEC50 PC3MM
Description: IV. Cell Proliferation Assay Protocol:
A2780, PC-3, or PC3MM cells were seeded at 1000 cells/well in 100 μL/well (10.000 cells/mL) growth media in 96-well plates. Cells were allowed to adhere to the bottom of plates for 3-5 hours in a 37° C. 5% CO2 incubator. Compounds were dissolved in DMSO and then transferred to the cell plates. The cells were incubated with the compounds for 3 days in a 37° C. 5% CO2 incubator. The growth medium containing the compounds was then removed from the cells and fresh medium was added, followed by 100 μL of Cell Titer Glo assay reagent (Promega). This mixture was shaken for 1 minute and then incubated without shaking for 10 minutes. Activity determinations for the compounds were made by detection on a Trilux Instrument.

PDK1 kinase = biological target: T1, PDK1 kinase (Homo sapiens, UniProt O15530); experiment: PDK1 Kinase Alpha Screen Assay; type: biochemical; conditions: read-out: PDK1 IC50
T1 sequence (O15530 1-556): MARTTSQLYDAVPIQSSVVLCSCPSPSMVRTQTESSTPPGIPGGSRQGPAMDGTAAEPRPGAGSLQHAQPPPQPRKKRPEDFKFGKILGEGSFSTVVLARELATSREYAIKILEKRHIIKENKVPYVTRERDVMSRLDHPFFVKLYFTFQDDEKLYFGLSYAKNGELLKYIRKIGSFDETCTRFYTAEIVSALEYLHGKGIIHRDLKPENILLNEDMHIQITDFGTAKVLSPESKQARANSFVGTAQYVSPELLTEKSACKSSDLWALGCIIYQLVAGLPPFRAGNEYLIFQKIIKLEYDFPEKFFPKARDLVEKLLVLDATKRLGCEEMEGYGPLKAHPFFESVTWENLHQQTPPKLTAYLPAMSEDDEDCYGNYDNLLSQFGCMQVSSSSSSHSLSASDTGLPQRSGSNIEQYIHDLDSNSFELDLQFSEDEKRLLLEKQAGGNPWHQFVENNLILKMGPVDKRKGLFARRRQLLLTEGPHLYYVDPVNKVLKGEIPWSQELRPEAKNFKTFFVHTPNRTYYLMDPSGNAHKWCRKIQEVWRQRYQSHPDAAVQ
Outline: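 Detection used AlphaScreen: streptavidin donor and protein A acceptor beads (25 μg/ml each) bridged by a phospho-(Ser/Thr) PKA substrate antibody binding phosphorylated peptide. Reaction: biotin-PDK1-4 peptide (50 nM), ATP (10 uM), PDK1 in pH 7.5 Tris/MgCl2/DTT buffer, 3-18 hours, EDTA-stopped.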

A2780 cells = experiment: Cell Proliferation Assay (Cell Titer Glo), A2780; type: cell-based; conditions: Homo sapiens, A2780 cells, read-out: CPEC50 A2780
Outline: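 Following a 3-day compound exposure (37° C., 5% CO2) of A2780 or PC3MM cells plated at 1000 per well, viability was measured by Cell Titer Glo luminescence in fresh medium, read 10 min after reagent addition.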

PC-3 cells = experiment: Cell Proliferation Assay (Cell Titer Glo), PC-3 cell line; type: cell-based; conditions: Homo sapiens, read-out: CPEC50 PC3
Outline: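 Cell Titer Glo luminescence, read after fresh medium replaced the dosing medium, gave viability of PC-3 cells plated at 1000 cells/well. Compounds, 1:3 serially diluted in DMSO at 500× and then in medium, were added after 3-5 h adhesion and incubated 3 days at 37° C.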

[1] = PC-3, cell proliferation, PC3 cells

EC50 (PC3MM cells) [µM]	IC50 (PDK1 kinase; PDK1 Kinase Alpha Screen Assay) [µM]	SMILES	other results
< 5	< 5	c1cc(N2CCOCC2)ccc1Nc1ncc2cc(-c3cn[nH]c3)c(OC3CCNCC3)cc2n1 [Compound 651, N-(4-morpholinophenyl)-7-(piperidin-4-yloxy)-6-(1H-pyrazol-4-yl)quinazolin-2-amine]	–
< 5	< 5	CN1CCC(Oc2cc3nc(Nc4ccc(N5CCOCC5)cc4)ncc3cc2-c2cn[nH]c2)CC1 [Compound 654, 7-(1-methylpiperidin-4-yloxy)-N-(4-morpholinophenyl)-6-(1H-pyrazol-4-yl)quinazolin-2-amine]	–
< 5	< 5	C#Cc1cc(OC2CCNCC2)c2nc(Nc3cc(NC(C)=O)cc(-c4cncnc4)c3)ncc2c1 [Compound 657, N-(3-(6-ethynyl-8-(piperidin-4-yloxy)quinazolin-2-ylamino)-5-(pyrimidin-5-yl)phenyl)acetamide]	–
< 5	< 5	CC(=O)Nc1cc(Nc2ncc3ccc(OC4CCNCC4)cc3n2)cc(-c2cn[nH]c2)c1 [Compound 659, N-(3-(7-(piperidin-4-yloxy)quinazolin-2-ylamino)-5-(1H-pyrazol-4-yl)phenyl)acetamide]	–
–	< 5	Cn1cc(-c2ccc3cnc(Nc4ccc(S(N)(=O)=O)cc4)nc3c2-c2ccc(F)nc2)cn1 [Compound 907, 4-(8-(6-fluoropyridin-3-yl)-7-(1-methyl-1H-pyrazol-4-yl)quinazolin-2-ylamino)benzenesulfonamide]	EC50 (A2780 cells; cell proliferation): < 5 µM; EC50 (PC-3 cells; [1]): < 5 µM
–	< 5	COCCNc1ccc(-c2c(-c3cnn(C)c3)ccc3cnc(Nc4ccc(S(N)(=O)=O)cc4)nc23)cn1 [Compound 908, 4-(8-(6-(2-methoxyethylamino)pyridin-3-yl)-7-(1-methyl-1H-pyrazol-4-yl)quinazolin-2-ylamino)benzenesulfonamide]	EC50 (A2780 cells; cell proliferation): < 5 µM; EC50 (PC-3 cells; [1]): < 5 µM
–	< 5	Cn1cc(-c2ccc3cnc(Nc4ccc(S(N)(=O)=O)cc4)nc3c2-c2ccc(N3CCOCC3)nc2)cn1 [Compound 909, 4-(7-(1-methyl-1H-pyrazol-4-yl)-8-(6-morpholinopyridin-3-yl)quinazolin-2-ylamino)benzenesulfonamide]	EC50 (A2780 cells; cell proliferation): < 5 µM; EC50 (PC-3 cells; [1]): < 5 µM
–	< 5	CN1CCN(c2ccc(-c3c(-c4cnn(C)c4)ccc4cnc(Nc5ccc(S(N)(=O)=O)cc5)nc34)cn2)CC1 [Compound 910, 4-(7-(1-methyl-1H-pyrazol-4-yl)-8-(6-(4-methylpiperazin-1-yl)pyridin-3-yl)quinazolin-2-ylamino)benzenesulfonamide]	EC50 (A2780 cells; cell proliferation): < 5 µM; EC50 (PC-3 cells; [1]): < 5 µM
–	< 5	NS(=O)(=O)c1ccc(Nc2ncc3ccc(-c4ccccc4)c(OC4CCNCC4)c3n2)cc1 [Compound 911, 4-(7-phenyl-8-(piperidin-4-yloxy)quinazolin-2-ylamino)benzenesulfonamide]	EC50 (A2780 cells; cell proliferation): < 5 µM; EC50 (PC-3 cells; [1]): < 5 µM
–	< 5	NS(=O)(=O)c1ccc(Nc2ncc3cc(F)cc(-c4ccc(N5CCS(=O)(=O)CC5)nc4)c3n2)cc1 [Compound 913]	EC50 (A2780 cells; cell proliferation): < 5 µM; EC50 (PC-3 cells; [1]): < 5 µM
–	< 5	CC(C)Nc1ccc(-c2cc(F)cc3cnc(Nc4ccc(S(N)(=O)=O)cc4)nc23)cn1 [Compound 914, 4-(6-fluoro-8-(6-(isopropylamino)pyridin-3-yl)quinazolin-2-ylamino)benzenesulfonamide]	EC50 (A2780 cells; cell proliferation): < 5 µM; EC50 (PC-3 cells; [1]): < 5 µM

Continued, compound first:

SMILES	EC50 (PC3MM cells) [µM]	IC50 (PDK1 kinase; PDK1 Kinase Alpha Screen Assay) [µM]	other results
CN1CCC(Oc2ccc3cnc(Nc4ccc(N5CCOCC5)cc4)nc3c2)CC1 [Compound 655, 7-(1-methylpiperidin-4-yloxy)-N-(4-morpholinophenyl)quinazolin-2-amine]	< 5	< 5	–
COC(=O)Nc1cc(CN2CCOCC2)cc(Nc2ncc3cccc(OC4CCNCC4)c3n2)c1 [Compound 656, methyl 3-(morpholinomethyl)-5-(8-(piperidin-4-yloxy)quinazolin-2-ylamino)phenylcarbamate]	< 5	< 5	–
CC(=O)Nc1cc(NC(C)=O)cc(Nc2ncc3ccc(OC4CCNCC4)cc3n2)c1 [Compound 658, N,N′-(5-(7-(piperidin-4-yloxy)quinazolin-2-ylamino)-1,3-phenylene)diacetamide]	5 to 10	< 5	–
CN1CCC(Oc2ccc3cnc(Nc4cc(C(N)=O)cc(-c5cnn(C)c5)c4)nc3c2)CC1 [Compound 660, 3-(1-methyl-1H-pyrazol-4-yl)-5-(7-(1-methylpiperidin-4-yloxy)quinazolin-2-ylamino)benzamide]	< 5	< 5	–
COC(=O)Nc1cc(Nc2ncc3cc(-c4cn[nH]c4)c(OC4CCNCC4)cc3n2)cc(-c2cn[nH]c2)c1 [Compound 661, methyl 3-(7-(piperidin-4-yloxy)-6-(1H-pyrazol-4-yl)quinazolin-2-ylamino)-5-(1H-pyrazol-4-yl)phenylcarbamate]	< 5	< 5	–
COC(=O)Nc1cc(Nc2ncc3cc(-c4nccs4)c(OC4CCNCC4)cc3n2)cc(-c2cn[nH]c2)c1 [Compound 662, methyl 3-(7-(piperidin-4-yloxy)-6-(thiazol-2-yl)quinazolin-2-ylamino)-5-(1H-pyrazol-4-yl)phenylcarbamate]	< 5	< 5	–
NC(=O)c1cc(Nc2ncc3cc(-c4cn[nH]c4)cc(OC4CCNCC4)c3n2)cc(N2CCOCC2)c1 [Compound 663, 3-morpholino-5-(8-(piperidin-4-yloxy)-6-(1H-pyrazol-4-yl)quinazolin-2-ylamino)benzamide]	5 to 10	< 5	–
O=C(c1cc(Nc2ncc3cc(-c4cn[nH]c4)cc(OC4CCNCC4)c3n2)cc(N2CCOCC2)c1)N1CCOCC1 [Compound 664, morpholino(3-morpholino-5-(8-(piperidin-4-yloxy)-6-(1H-pyrazol-4-yl)quinazolin-2-ylamino)phenyl)methanone]	5 to 10	< 5	–
Cn1cc(-c2cc(Nc3ncc4cc(-c5cn[nH]c5)cc(OC5CCNCC5)c4n3)cc(C(N)=O)c2)cn1 [Compound 665, 3-(1-methyl-1H-pyrazol-4-yl)-5-(8-(piperidin-4-yloxy)-6-(1H-pyrazol-4-yl)quinazolin-2-ylamino)benzamide]	5 to 10	< 5	–
C#Cc1cc(OC2CCNCC2)c2nc(Nc3cc(C(N)=O)cc(N4CCOCC4)c3)ncc2c1 [Compound 666, 3-(6-ethynyl-8-(piperidin-4-yloxy)quinazolin-2-ylamino)-5-morpholinobenzamide]	5 to 10	< 5	–
C#Cc1cc(OC2CCNCC2)c2nc(Nc3cc(C(=O)N4CCOCC4)cc(N4CCOCC4)c3)ncc2c1 [Compound 667, (3-(6-ethynyl-8-(piperidin-4-yloxy)quinazolin-2-ylamino)-5-morpholinophenyl)(morpholino) methanone]	< 5	< 5	–
C#Cc1cc(OC2CCNCC2)c2nc(Nc3cc(C(N)=O)cc(-c4cnn(C)c4)c3)ncc2c1 [Compound 668, 3-(6-ethynyl-8-(piperidin-4-yloxy)quinazolin-2-ylamino)-5-(1-methyl-1H-pyrazol-4-yl)benzamide]	< 5	< 5	–
CN1CCN(C(=O)c2ccc(-c3cc(F)cc4cnc(Nc5ccc(S(N)(=O)=O)cc5)nc34)cc2)CC1 [Compound 915, 4-(6-fluoro-8-(4-(4-methylpiperazine-1-carbonyl)phenyl)quinazolin-2-ylamino)benzenesulfonamide]	–	–	IC50 (PDK1 kinase): < 5 µM; EC50 (A2780 cells): < 5 µM; EC50 (PC-3 cells; PC-3, PC3 cells): < 5 µM
CC(C)N1CCN(Cc2cccc3cnc(Nc4ccc(S(N)(=O)=O)cc4)nc23)CC1 [Compound 925, 4-(8-((4-isopropylpiperazin-1-yl)methyl)quinazolin-2-ylamino)benzenesulfonamide]	–	–	IC50 (PDK1 kinase): < 5 µM; EC50 (A2780 cells): < 5 µM; EC50 (PC-3 cells; PC-3, PC3 cells): 5 to 10 µM
